{"source": "ChEMBL document CHEMBL4673310", "about": "“Discovery of benzhydrol-oxaborole derivatives as Streptococcus pneumoniae leucyl-tRNA synthetase inhibitors” (Bioorg Med Chem, 2021)", "note": "Calls of active or inactive are those of the source. The calls are words filed in the database; no cut-off is given here.", "data": [{"test_system": "not listed separately", "experiment": "Inhibition of Streptococcus pneumoniae LeuRS using [3H]Leucine as substrate preincubated for 20 mins", "units": {"IC50": "µM"}, "values": [{"smiles": "CC(C)(C)OC(=O)NCCSc1ccc(C(O)c2ccc3c(c2)B(O)OC3)cc1", "note": "(centres undefined)", "IC50": 70.2}, {"smiles": "COc1cc(C(O)c2ccc3c(c2)B(O)OC3)cc(OC)c1OC", "note": "(centres undefined)", "IC50": "> 640"}, {"smiles": "OB1OCc2ccc(C(O)c3ccccc3)cc21", "note": "(centres undefined)", "IC50": 2.13}, {"smiles": "CC(=O)COc1ccc(C(O)c2ccc3c(c2)B(O)OC3)cc1", "note": "(centres undefined)", "IC50": 7}, {"smiles": "OB1OCc2ccc(C(O)c3ccc(SC(F)(F)F)cc3)cc21", "note": "(centres undefined)", "IC50": 25.7}, {"smiles": "CCOC(=O)CC(=O)CSc1ccc(C(O)c2ccc3c(c2)B(O)OC3)cc1", "note": "(centres undefined)", "IC50": 7.63}, {"smiles": "OB1OCc2ccc(C(O)c3ccc(Cl)cc3)cc21", "note": "(centres undefined)", "IC50": 7.44}, {"smiles": "OB1OCc2ccc(C(O)c3ccc(-c4ccccc4)cc3)cc21", "note": "(centres undefined)", "IC50": 5.48}, {"smiles": "O=C(O)CSc1ccc(C(O)c2ccc3c(c2)B(O)OC3)cc1", "note": "(centres undefined)", "IC50": 2.15}, {"smiles": "OB1OCc2ccc(C(O)c3ccc(SCC(F)(F)F)cc3)cc21", "note": "(centres undefined)", "IC50": 3.63}, {"smiles": "OB1OCc2ccc(C(O)c3ccc(SCc4ccncc4)cc3)cc21", "note": "(centres undefined)", "IC50": 7.17}, {"smiles": "CC(=O)CSc1ccc(C(O)c2ccc3c(c2)B(O)OC3)cc1", "note": "(centres undefined)", "IC50": 0.95}, {"smiles": "CSc1ccccc1C(O)c1ccc2c(c1)B(O)OC2", "note": "(centres undefined)", "IC50": 57.1}, {"smiles": "NC(=O)CSc1ccc(C(O)c2ccc3c(c2)B(O)OC3)cc1", "note": "(centres undefined)", "IC50": 10.2}, {"smiles": "COc1cccc(C(O)c2ccc3c(c2)B(O)OC3)c1", "note": "(centres undefined)", "IC50": 50.8}, {"smiles": "COC(=O)c1ccc(C(O)c2ccc3c(c2)B(O)OC3)cc1", "note": "(centres undefined)", "IC50": 18.5}, {"smiles": "OB1OCc2ccc(C(O)c3ccc(SCC4CCCCC4)cc3)cc21", "note": "(centres undefined)", "IC50": 8.76}, {"smiles": "CC(=O)c1ccc(C(O)c2ccc3c(c2)B(O)OC3)cc1", "note": "(centres undefined)", "IC50": 11}, {"smiles": "N#CCSc1ccc(C(O)c2ccc3c(c2)B(O)OC3)cc1", "note": "(centres undefined)", "IC50": 3.89}, {"smiles": "O=Cc1cc(C(O)c2ccc3c(c2)B(O)OC3)ccc1F", "note": "(centres undefined)", "IC50": 66.8}, {"smiles": "OB1OCc2ccc(C(O)c3cccc(F)c3)cc21", "note": "(centres undefined)", "IC50": 56.1}, {"smiles": "OB1OCc2ccc(C(O)c3ccc(SCc4ccccc4)cc3)cc21", "note": "(centres undefined)", "IC50": 27.5}, {"smiles": "C[Si](C)(C)CSc1ccc(C(O)c2ccc3c(c2)B(O)OC3)cc1", "note": "(centres undefined)", "IC50": 13.3}, {"smiles": "OB1OCc2ccc(C(O)c3ccc(S)cc3)cc21", "note": "(centres undefined)", "IC50": 0.368}, {"smiles": "O=[N+]([O-])c1ccc(CSc2ccc(C(O)c3ccc4c(c3)B(O)OC4)cc2)cc1", "note": "(centres undefined)", "IC50": 7.16}, {"smiles": "C=Cc1ccc(C(O)c2ccc3c(c2)B(O)OC3)cc1", "note": "(centres undefined)", "IC50": 4.63}, {"smiles": "OB1OCc2ccc(C(O)c3ccc(F)cc3)cc21", "note": "(centres undefined)", "IC50": 4.86}, {"smiles": "O=Cc1ccc(C(O)c2ccc3c(c2)B(O)OC3)cc1", "note": "(centres undefined)", "IC50": 12.8}, {"smiles": "C=CCSc1ccc(C(O)c2ccc3c(c2)B(O)OC3)cc1", "note": "(centres undefined)", "IC50": 8.27}, {"smiles": "CSc1cccc(C(O)c2ccc3c(c2)B(O)OC3)c1", "note": "(centres undefined)", "IC50": 23.9}, {"smiles": "OB1OCc2ccc(C(O)c3ccc(N4CCOCC4)cc3)cc21", "note": "(centres undefined)", "IC50": 10.3}, {"smiles": "Nc1ccc(CSc2ccc(C(O)c3ccc4c(c3)B(O)OC4)cc2)cc1", "note": "(centres undefined)", "IC50": 11.7}, {"smiles": "COCCSc1ccc(C(O)c2ccc3c(c2)B(O)OC3)cc1", "note": "(centres undefined)", "IC50": 5.76}, {"smiles": "N#Cc1ccc(C(O)c2ccc3c(c2)B(O)OC3)cc1", "note": "(centres undefined)", "IC50": 8.14}, {"smiles": "COc1ccc(C(O)c2ccc3c(c2)B(O)OC3)cc1OC", "note": "(centres undefined)", "IC50": 67.8}, {"smiles": "CSc1ccc(C(O)c2ccc3c(c2)B(O)OC3)cc1", "note": "(centres undefined)", "IC50": 3.95}, {"smiles": "OB1OCc2ccc(C(O)c3cccc(Cl)c3)cc21", "note": "(centres undefined)", "IC50": 23.7}, {"smiles": "C[S+]([O-])c1ccc(C(O)c2ccc3c(c2)B(O)OC3)cc1", "note": "(centres undefined)", "IC50": "> 100"}, {"smiles": "C#CCSc1ccc(C(O)c2ccc3c(c2)B(O)OC3)cc1", "note": "(centres undefined)", "IC50": 3.77}, {"smiles": "COc1ccc(C(O)c2ccc3c(c2)B(O)OC3)cc1", "note": "(centres undefined)", "IC50": 23.2}, {"smiles": "OB1OCc2ccc(C(O)c3ccc(C(F)(F)F)cc3)cc21", "note": "(centres undefined)", "IC50": 5.75}, {"smiles": "CS(=O)(=O)c1ccc(C(O)c2ccc3c(c2)B(O)OC3)cc1", "note": "(centres undefined)", "IC50": 32.5}, {"smiles": "COC(=O)c1ccc(CSc2ccc(C(O)c3ccc4c(c3)B(O)OC4)cc2)cc1", "note": "(centres undefined)", "IC50": 22.7}]}, {"test_system": "Streptococcus pneumoniae", "experiment": "Antibacterial activity against Streptococcus pneumoniae assessed as suppression of visible growth incubated for 24 hrs by CLSI-based broth microdilution method", "type": "functional", "values": [{"smiles": "OB1OCc2ccc(C(O)c3ccccc3)cc21", "note": "(centres undefined)", "MIC": "10 µg/mL"}, {"smiles": "OB1OCc2ccc(C(O)c3ccc(-c4ccccc4)cc3)cc21", "note": "(centres undefined)", "MIC": "4 µg/mL"}, {"smiles": "CC(=O)CSc1ccc(C(O)c2ccc3c(c2)B(O)OC3)cc1", "note": "(centres undefined)", "MIC": "6 µg/mL"}, {"smiles": "N#CCSc1ccc(C(O)c2ccc3c(c2)B(O)OC3)cc1", "note": "(centres undefined)", "MIC": "8 µg/mL"}, {"smiles": "OB1OCc2ccc(C(O)c3ccc(S)cc3)cc21", "note": "(centres undefined)", "MIC": "8 µg/mL"}, {"smiles": "C=Cc1ccc(C(O)c2ccc3c(c2)B(O)OC3)cc1", "note": "(centres undefined)", "MIC": "8 µg/mL"}, {"smiles": "OB1OCc2ccc(C(O)c3ccc(F)cc3)cc21", "note": "(centres undefined)", "MIC": "inactive"}, {"smiles": "CC1(C)S[C@@H]2[C@H](NC(=O)[C@H](N)c3ccccc3)C(=O)N2[C@H]1C(=O)O", "note": "[AMPICILLIN]", "MIC": "0.125 µg/mL"}, {"smiles": "CSc1ccc(C(O)c2ccc3c(c2)B(O)OC3)cc1", "note": "(centres undefined)", "MIC": "32 µg/mL"}, {"smiles": "C#CCSc1ccc(C(O)c2ccc3c(c2)B(O)OC3)cc1", "note": "(centres undefined)", "MIC": "16 µg/mL"}, {"smiles": "OB1OCc2ccc(C(O)c3ccc(C(F)(F)F)cc3)cc21", "note": "(centres undefined)", "MIC": "32 µg/mL"}]}]}
